Laboratory results taken from US20180099931A1 (AbbVie S.à.r.l., priority 2016, published 2018).
Read-outs that look alike come from different tables or passages of the source.

Target: T1, F508delCFTR (Homo sapiens, UniProt P13569, DEL508-508)
T1 construct: expressed in transfected cells; host or cells: CFBE41o- human lung-derived epithelial cells (CFBE4lo-F508delCFTR-HRP), doxycycline-inducible
Assay: Cell Surface Expression-Horse Radish Peroxidase (CSE-HRP) Assay;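 on Maximum % activity (with co-corrector): co-corrector and positive control are both the same reference corrector at 2 µM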
Type: cell-based
Conditions: for Maximum % activity (with co-corrector) / Emax: maximum at any tested concentration, normalized to on-plate positive control; for Emax: read-out: Maximum % activity (without co-corrector)
Experimental: Cell Surface Expression-Horse Radish Peroxidase (CSE-HRP) Assay;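 on Maximum % activity (with co-corrector): co-corrector and positive control are both the same reference corrector at 2 µM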
The development was achieved by expressing the F508delCFTR mutation along with a horseradish peroxidase (HRP) in the fourth exofacial loop, and then measuring the HRP activity using luminescence readout from these cells, CFBE4lo-F508delCFTR-HRP, that were incubated overnight with the test corrector compounds, either without or with the co-corrector. […] The test compounds were then added either without or with a co-corrector at the required concentrations and further incubated for 18-24 hours at 33° C. The highest concentration tested was 20 μM with an 8-point concentration response curve using a 3-fold dilution in both the test compound without or with the co-corrector. Three replicate plates were run to determine one EC50. All plates contained negative controls (dimethyl sulfoxide, DMSO) and positive control (2 μM of 3-[(2R,4R)-4-({[1-(2,2-difluoro-1,3-benzodioxol-5-yl)cyclopropyl]carbonyl}amino)-7-methoxy-3,4-dihydro-2H-chromen-2-yl]benzoic acid) as well as on-plate concentration response of the positive control. […] The raw counts from the experiment were analyzed using Accelrys® Assay Explorer v3.3.
1−[3*SDPositive Control+3*SDNegative Control/Absolute(MeanPositive Control−MeanNegative Control)]
wherein “SD” is standard deviation.
The % activity measured at each of the 8 test concentrations of the test compound added either without or with a co-corrector (2 μM of 3-[(2R,4R)-4-({[1-(2,2-difluoro-1,3-benzodioxol-5-yl)cyclopropyl]carbonyl}amino)-7-methoxy-3,4-dihydro-2H-chromen-2-yl]benzoic acid) was normalized to the on-plate positive control using the following formulae:
% activity(Test compound without co-corrector)=[(test compound without co-corrector response−DMSO response)/(positive control response−DMSO response)]*100
% activity(Test compound with co-corrector)=[(test compound with co-corrector response−DMSO response)/(positive control response−DMSO response)]*100
The maximum % activity achieved for the test compound either without or with a co-corrector at any tested concentration is presented in Table 4 along with the respective EC50's calculated using the following general sigmoidal curve with variable Hill slope equation (described as Model 42 in the Accelrys® Assay Explorer v3.3 software):
General sigmoidal curve with concentration, response, top, bottom, EC50 and Hill slope. This model describes a sigmoidal curve with an adjustable baseline, a. The equation can be used to fit curves where response is either increasing or decreasing with respect to the independent variable, “x”.
“x” is a concentration of drug under test. “y” is the response. “a” is the maximum response, and “d” is the minimum response “c” is the inflection point (EC50) for the curve. That is, “y” is halfway between the lower and upper asymptotes when x=c. “b” is the slope-factor or Hill coefficient. The sign of b is positive when the response increases with increasing dose and is negative when the response decreases with increasing dose (inhibition).

[1] = CSE-HRP, test compound without co-corrector, read-out: EC50 (without co-corrector)
[2] = CSE-HRP, with co-corrector (2 μM of 3-[(2R,4R)-4-({[1-(2,2-difluoro-1,3-benzodioxol-5-yl)cyclopropyl]carbonyl}amino)-7-methoxy-3,4-dihydro-2H-chromen-2-yl]benzoic acid), read-out: EC50 (with co-corrector)
[3] = CSE-HRP, with co-corrector (2 μM)
[4] = test compound without co-corrector
[5] = test compound without co-corrector, read-out: EC50 (without co-corrector)
[6] = with co-corrector (2 μM of 3-[(2R,4R)-4-({[1-(2,2-difluoro-1,3-benzodioxol-5-yl)cyclopropyl]carbonyl}amino)-7-methoxy-3,4-dihydro-2H-chromen-2-yl]benzoic acid)
[7] = with co-corrector (2 μM of 3-[(2R,4R)-4-({[1-(2,2-difluoro-1,3-benzodioxol-5-yl)cyclopropyl]carbonyl}amino)-7-methoxy-3,4-dihydro-2H-chromen-2-yl]benzoic acid), read-out: EC50 (with co-corrector)

T1 sequence (P13569 with tags, fused parts or gaps DEL508-508): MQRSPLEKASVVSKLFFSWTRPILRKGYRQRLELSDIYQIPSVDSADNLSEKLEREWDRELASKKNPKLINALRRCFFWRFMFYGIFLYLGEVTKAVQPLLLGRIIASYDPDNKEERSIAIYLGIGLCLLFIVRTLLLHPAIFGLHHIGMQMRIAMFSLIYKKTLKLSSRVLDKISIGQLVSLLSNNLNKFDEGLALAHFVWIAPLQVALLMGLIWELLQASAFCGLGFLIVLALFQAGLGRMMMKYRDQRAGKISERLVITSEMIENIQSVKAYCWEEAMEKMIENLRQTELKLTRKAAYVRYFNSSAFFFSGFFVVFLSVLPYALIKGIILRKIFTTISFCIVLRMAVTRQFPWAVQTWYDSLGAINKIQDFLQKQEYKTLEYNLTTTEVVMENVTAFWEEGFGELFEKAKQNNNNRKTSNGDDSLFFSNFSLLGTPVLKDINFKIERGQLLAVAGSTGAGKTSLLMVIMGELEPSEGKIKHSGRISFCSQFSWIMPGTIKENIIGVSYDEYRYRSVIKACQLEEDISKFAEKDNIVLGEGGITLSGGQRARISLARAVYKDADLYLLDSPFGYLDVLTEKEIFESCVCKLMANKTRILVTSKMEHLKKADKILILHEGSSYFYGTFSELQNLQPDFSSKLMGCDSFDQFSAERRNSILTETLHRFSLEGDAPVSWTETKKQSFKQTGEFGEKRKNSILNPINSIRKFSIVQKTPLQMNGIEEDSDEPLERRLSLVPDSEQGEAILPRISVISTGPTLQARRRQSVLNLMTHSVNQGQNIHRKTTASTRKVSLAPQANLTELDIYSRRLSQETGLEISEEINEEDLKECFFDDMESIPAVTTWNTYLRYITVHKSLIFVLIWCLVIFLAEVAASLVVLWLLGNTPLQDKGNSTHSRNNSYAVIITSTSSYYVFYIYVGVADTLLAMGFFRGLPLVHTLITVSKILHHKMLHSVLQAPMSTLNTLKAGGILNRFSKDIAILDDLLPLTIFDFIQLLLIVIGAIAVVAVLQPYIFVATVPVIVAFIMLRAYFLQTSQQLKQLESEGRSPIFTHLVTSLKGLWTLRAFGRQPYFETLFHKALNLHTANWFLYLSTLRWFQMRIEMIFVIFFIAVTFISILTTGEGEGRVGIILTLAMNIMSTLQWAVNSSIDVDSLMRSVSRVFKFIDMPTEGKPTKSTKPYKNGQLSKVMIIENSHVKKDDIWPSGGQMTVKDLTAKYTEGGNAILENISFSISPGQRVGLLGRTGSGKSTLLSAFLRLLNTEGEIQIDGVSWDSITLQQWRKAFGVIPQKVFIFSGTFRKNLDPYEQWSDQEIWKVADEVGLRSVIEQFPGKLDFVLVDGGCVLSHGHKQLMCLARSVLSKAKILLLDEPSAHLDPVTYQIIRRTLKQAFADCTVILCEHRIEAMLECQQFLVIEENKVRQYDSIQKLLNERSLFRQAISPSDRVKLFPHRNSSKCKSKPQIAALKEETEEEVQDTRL

| SMILES | EC50 [1] [µM] | EC50 [2] [µM] | Maximum % activity (with co-corrector) [3] | Emax (CSE-HRP, without co-corrector) [%] | Emax [4] [%] | EC50 [5] [µM] | Maximum % activity (with co-corrector) [6] | EC50 [7] [µM] |
| --- | --- | --- | --- | --- | --- | --- | --- | --- |
| COc1ccc(C(C)C)cc1CN[C@@H]1[C@@H](C(C)(C)C)[C@H](C(=O)O)N(C(=O)C2CCCCC2)[C@@H]1c1ccccc1 (racemic) [II-73] | 1 to 10 | 1 to 10 | +++ (≥350) | > 200 | – | – | – | – |
| COc1cc(C#N)ccc1CN[C@@H]1[C@@H](C(C)(C)C)[C@H](C(=O)O)N(C(=O)C2CCCCC2)[C@@H]1c1ccccc1 (racemic) [II-74] | 1 to 10 | 1 to 10 | +++ (≥350) | < 100 | – | – | – | – |
| CC(C)(C)[C@@H]1[C@@H](NCc2cc(Cl)ccc2OC(F)(F)F)[C@@H](c2ccccc2)N(C(=O)C2CCCCC2)[C@H]1C(=O)O (racemic) [II-75] | < 1 | 1 to 10 | ++ (≥150 and <350) | < 100 | – | – | – | – |
| CC(C)(C)[C@@H]1[C@@H](NCc2ccccc2OC(F)(F)F)[C@@H](c2ccccc2)N(C(=O)C2CCCCC2)[C@H]1C(=O)O (racemic) [II-76] | 1 to 10 | 1 to 10 | +++ (≥350) | < 100 | – | – | – | – |
| COc1nc(C(F)(F)F)ccc1CN[C@@H]1[C@@H](C(C)(C)C)[C@H](C(=O)O)N(C(=O)C2CCCCC2)[C@@H]1c1ccccc1 (racemic) [II-77] | 1 to 10 | 1 to 10 | +++ (≥350) | 100 to 200 | – | – | – | – |
| COc1ccc(Cl)cc1CN[C@@H]1[C@@H](C(C)(C)OC)[C@H](C(=O)O)N(C(=O)C2CCCCC2)[C@@H]1c1ccccc1 (racemic) [II-79] | 1 to 10 | 1 to 10 | +++ (≥350) | > 200 | – | – | – | – |
| COc1ccc(C(F)(F)F)cc1CN[C@@H]1[C@@H](C(C)(C)C)[C@H](C(=O)O)N(C(=O)C2COCCO2)[C@@H]1c1ccccc1 (mixture of isomers) [II-85] | 1 to 10 | 1 to 10 | ++ (≥150 and <350) | < 100 | – | – | – | – |
| COc1ccc(Cl)cc1CN[C@@H]1[C@@H](C(C)(C)C)[C@H](C(=O)O)N(C(=O)C2COCCO2)[C@@H]1c1ccccc1 (mixture of isomers) [II-86] | 1 to 10 | 1 to 10 | ++ (≥150 and <350) | < 100 | – | – | – | – |
| COc1cc(C(F)(F)F)ccc1CN[C@@H]1[C@@H](C(C)(C)OC)[C@H](C(=O)O)N(C(=O)C2CCCCC2)[C@@H]1c1ccccc1 (racemic) [II-88] | 1 to 10 | 1 to 10 | +++ (≥350) | 100 to 200 | – | – | – | – |
| COc1ncc(C(F)(F)F)cc1N[C@@H]1[C@@H](C(C)(C)OC)[C@H](C(=O)O)N(C(=O)C2CCCCC2)[C@@H]1c1ccccc1 (racemic) [II-89] | 1 to 10 | 1 to 10 | ++ (≥150 and <350) | < 100 | – | – | – | – |
| COc1ccc(C(C)(C)C)cc1CN[C@@H]1[C@@H](C(C)(C)C)[C@H](C(=O)O)N(C(=O)OC2CCC2)[C@@H]1c1ccccc1 (racemic) [II-90] | 1 to 10 | 1 to 10 | +++ (≥350) | > 200 | – | – | – | – |
| Cc1ccccc1CN[C@@H]1[C@@H](C(C)(C)C)[C@H](C(=O)O)N(C(=O)CC2CCCC2)[C@@H]1c1ccccc1 (racemic) [III-2] | – | – | – | – | < 100 | > 10 | ++ (≥150 and <350) | 1 to 10 |
| CC(C)(C)[C@@H]1[C@@H](NCc2ccc(Cl)cc2Cl)[C@@H](c2ccccc2)N(C(=O)CC2CCCC2)[C@H]1C(=O)O (racemic) [III-3] | – | – | – | – | < 100 | > 10 | ++ (≥150 and <350) | 1 to 10 |
| CC(C)(C)[C@@H]1[C@@H](Nc2cc(C(F)(F)F)ccn2)[C@@H](c2ccccc2)N(C(=O)C2CCCCC2)[C@H]1C(=O)O (racemic) [III-4] | – | – | – | – | < 100 | 1 to 10 | +++ (≥350) | 1 to 10 |
| CC(C)(C)[C@@H]1[C@@H](Nc2ccc(C(F)(F)F)cn2)[C@@H](c2ccccc2)N(C(=O)C2CCCCC2)[C@H]1C(=O)O (racemic) [III-5] | – | – | – | – | < 100 | 1 to 10 | ++ (≥150 and <350) | 1 to 10 |
| CC(C)(C)[C@@H]1[C@@H](Nc2cc(Cl)ccn2)[C@@H](c2ccccc2)N(C(=O)C2CCCCC2)[C@H]1C(=O)O (racemic) [III-6] | – | – | – | – | < 100 | > 10 | ++ (≥150 and <350) | 1 to 10 |
| CC(C)(C)[C@@H]1[C@@H](NCc2ccccc2OC(F)F)[C@@H](c2ccccc2)N(C(=O)C2CCCCC2)[C@H]1C(=O)O (racemic) [III-7] | – | – | – | – | < 100 | 1 to 10 | +++ (≥350) | 1 to 10 |
| COc1cccc(N[C@@H]2[C@@H](C(C)(C)C)[C@H](C(=O)O)N(C(=O)C3CCCCC3)[C@@H]2c2ccccc2)n1 (racemic) [III-8] | – | – | – | – | < 100 | 1 to 10 | +++ (≥350) | 1 to 10 |
| CC(C)(C)[C@@H]1[C@@H](NCc2cccc(Cl)c2O)[C@@H](c2ccccc2)N(C(=O)C2CCCCC2)[C@H]1C(=O)O (racemic) [III-9] | – | – | – | – | < 100 | > 10 | ++ (≥150 and <350) | 1 to 10 |
| CC(C)(C)[C@@H]1[C@@H](NCc2cccc(OC3CCOCC3)n2)[C@@H](c2ccccc2)N(C(=O)C2CCCCC2)[C@H]1C(=O)O (racemic) [III-10] | – | – | – | – | < 100 | > 10 | ++ (≥150 and <350) | 1 to 10 |
| COc1ccc(OC)c(CN[C@@H]2[C@@H](C(C)(C)C)[C@H](C(=O)O)N(C(=O)C3CCCCC3)[C@@H]2c2ccccc2)c1 (racemic) [III-11] | – | – | – | – | < 100 | 1 to 10 | ++ (≥150 and <350) | 1 to 10 |
| COc1ccccc1CN[C@@H]1[C@@H](C(C)(C)C)[C@H](C(=O)O)N(C(=O)C2CCCCC2)[C@@H]1c1ccccc1 (racemic) [III-12] | – | – | – | – | < 100 | 1 to 10 | +++ (≥350) | 1 to 10 |
| COc1cccc(CN[C@@H]2[C@@H](C(C)(C)C)[C@H](C(=O)O)N(C(=O)C3CCCCC3)[C@@H]2c2ccccc2)c1OC (racemic) [III-13] | – | – | – | – | < 100 | > 10 | + (<150) | > 10 |
| COc1cccc(CN[C@@H]2[C@@H](C(C)(C)C)[C@H](C(=O)O)N(C(=O)C3CCCCC3)[C@@H]2c2ccccc2)c1 (racemic) [III-14] | – | – | – | – | < 100 | > 10 | ++ (≥150 and <350) | 1 to 10 |
| COc1ccc(CN[C@@H]2[C@@H](C(C)(C)C)[C@H](C(=O)O)N(C(=O)C3CCCCC3)[C@@H]2c2ccccc2)c(OC)c1Cl (racemic) [III-15] | – | – | – | – | < 100 | 1 to 10 | ++ (≥150 and <350) | < 1 |
| COc1ccncc1CN[C@@H]1[C@@H](C(C)(C)C)[C@H](C(=O)O)N(C(=O)C2CCCCC2)[C@@H]1c1ccccc1 (racemic) [III-16] | – | – | – | – | < 100 | > 10 | + (<150) | > 10 |
